Source: patent US20250213533A1 (GH RESEARCH IRELAND LIMITED, priority 2022, published 2025)

Tested on: patients with postpartum depression (PPD)
Assay: Clinical trial of inhaled 5-MeO-DMT (IDR) in postpartum depression; one patient so far, 6 mg then 12 mg
Details: 1 patient
Procedure: The single-arm, open-label clinical trial will involve 15 adult female patients with clinically diagnosed postpartum depression (PPD).
The second dose (12 mg) will only be administered if: • a. […] The 6 mg dose was safe and well-tolerated according to the investigator, • c. Any psychoactive effects (PsE) of the prior dose have subsided, and • d. Pre-dose vital parameters and forced expiratory volume in one second (FEV1) are in normal range, or if outside of the normal range, are not clinically significant according to the investigator. • 3. Similarly, a third dose (18 mg) will only be administered if: • a. […] The 12 mg dose was safe and well-tolerated according to the investigator, and • c. Any PsE of the prior dose have subsided, and • d. Pre-dose vital parameters and forced expiratory volume in one second (FEV1) are in normal range, or if outside of the normal range, are not clinically significant according to the investigator.
The patients will be assessed for a peak psychedelic experience (based on a patient-scored visual analogue scale, the PE scale), sedation, and other endpoints after dosing. Follow-up visits are planned for Day 1, and Day 7 after the dosing day.
The following criteria must be met by all patients considered for clinical trial participation: • 1. Is female and in the age range between 18 and 45 years (inclusive) at screening. • 2. Has a body mass index (BMI) in the range of 18.5 and 35 kg/m^2 (inclusive) at screening. • 3. Meets the trial criteria for PPD as assessed by a trial psychiatrist or registered psychologist: • a. Diagnosis of Major Depressive Disorder without psychotic features, confirmed by the Mini-International Neuropsychiatric Interview (MINI), with peri-partum onset that began no earlier than gestation and no later than the first 4 weeks postpartum. • b. Has a Montgomery-Åsberg Depression Rating Scale (MADRS) total score of equal to or greater than 28 at screening and pre-dose on Day 0. • 6. […] Patients must have a negative pregnancy test at screening and on the pre-test day (Day −1). • 5. Is willing to delay start of other antidepressant or anxiety medication until after the end of the trial at Day 7 and agrees to keep any psychotherapy unchanged during the trial.
A potential patient who meets any of the following key exclusion criteria will be excluded from participation in this trial: • 1. Has, based on history, psychiatric assessment, and evaluation of the MINI, a current or prior diagnosis of bipolar disorder, a manic or hypomanic episode, a psychotic disorder, Major Depressive Disorder (MDD) or other mood disorder with psychotic features, obsessive compulsive disorder, post-traumatic stress disorder (PTSD), autism spectrum disorder, borderline personality disorder, schizophrenia, delusional disorder, paranoid personality disorder, schizoaffective disorder, clinically significant intellectual disability, or any other psychiatric comorbidity that renders the patient unsuitable for the trial according to the investigator's judgment. • 2. Has one or more first or second degree relatives with a current or previously diagnosed bipolar disorder, psychotic disorder or other mood disorder (including MDD) with psychotic features. • 3. Is in the judgement of a trial psychiatrist or registered psychologist, at significant risk for suicide based on history, psychiatric assessment, and evaluation of suicidal ideation and suicidal behaviour based on the Columbia-Suicide Severity Rating Scale (C-SSRS). • 4. Has taken anti-depressive medication within 14 days or 5 half-lives (whichever is longer) prior to dosing (exception: within the last 5 weeks in the case of fluoxetine). • 5.

COc1ccc2[nH]cc(CCN(C)C)c2c1 [5-MeO-DMT]
BIMF item 11 (take a little time each week to do something for myself) score (Day 7): 6
BIMF item 12 (taking good care of my baby's physical needs) score (Day 7): 6
BIMF item 13 (taking good care of my physical needs) score (Day 7): 5
BIMF item 14 (good decisions about my baby's health and well being) score (Day 7): 6
BIMF item 15 (My baby and I are getting into a routine) score (Day 7): 6
BIMF item 17 (able to take care of my baby and my other responsibilities) score (Day 7): 5
BIMF item 18 (Anxiety or worry often interferes with my mothering ability) score (Day 7): 5
BIMF item 19 (getting better at taking care of my baby) score (Day 7): 1
BIMF item 20 (satisfied with the job I am doing as a new mother) score (Day 7): 5
BPRS Anxiety improvement (Day 7): 6
BPRS Anxiety score (Day 7): 1
BPRS Blunted affect improvement (Day 7): 0
BPRS Blunted affect score (Day 7): 1
BPRS Conceptual disorganization improvement (Day 7): 0
BPRS Conceptual disorganization score (Day 7): 1
BPRS Depressive Mood improvement (Day 7): 5
BPRS Depressive Mood score (Day 7): 1
BPRS Disorientation improvement (Day 7): 0
BPRS Disorientation score (Day 7): 1
BPRS Emotional withdrawal improvement (Day 7): 4
BPRS Emotional withdrawal score (Day 7): 1
BPRS Excitement improvement (Day 7): 1
BPRS Excitement score (Day 7): 1
BPRS Grandiosity improvement (Day 7): 0
BPRS Grandiosity score (Day 7): 1
BPRS Guilt feelings improvement (Day 7): 5
BPRS Guilt feelings score (Day 7): 1
BPRS Hallucinatory behaviour improvement (Day 7): 0
BPRS Hallucinatory behaviour score (Day 7): 1
BPRS Hostility improvement (Day 7): 0
BPRS Hostility score (Day 7): 1
BPRS Mannerisms and Posturing improvement (Day 7): 0
BPRS Mannerisms and Posturing score (Day 7): 1
BPRS Motor retardation improvement (Day 7): 0
BPRS Motor retardation score (Day 7): 1
BPRS Somatic Concern improvement (Day 7): 5
BPRS Somatic Concern score (Day 7): 1
BPRS Suspiciousness improvement (Day 7): 0
BPRS Suspiciousness score (Day 7): 1
BPRS Tension improvement (Day 7): 5
BPRS Tension score (Day 7): 1
BPRS Uncooperativeness improvement (Day 7): 0
BPRS Uncooperativeness score (Day 7): 1
BPRS Unusual Thought Content improvement (Day 7): 0
BPRS Unusual Thought Content score (Day 7): 1
MADRS Apparent sadness improvement (Day 7): 5
MADRS Apparent sadness score (Day 7): 0
MADRS Concentration Difficulties improvement (Day 7): 0
MADRS Concentration Difficulties score (Day 7): 0
MADRS Inability to Feel improvement (Day 7): 3
MADRS Inability to Feel score (Day 7): 0
MADRS Inner Tension improvement (Day 7): 4
MADRS Inner Tension score (Day 7): 1
MADRS Lassitude improvement (Day 7): 3
MADRS Lassitude score (Day 7): 0
MADRS Pessimistic Thoughts improvement (Day 7): 4
MADRS Pessimistic Thoughts score (Day 7): 0
MADRS Reduced Sleep improvement (Day 7): 5
MADRS Reduced Sleep score (Day 7): 0
MADRS Reduced appetite improvement (Day 7): 0
MADRS Reduced appetite score (Day 7): 0
MADRS Reported sadness improvement (Day 7): 4
MADRS Reported sadness score (Day 7): 0
MADRS Suicidal Thoughts improvement (Day 7): 0
MADRS Suicidal Thoughts score (Day 7): 0
BIMF item 10 (trust my own feelings (instincts) in taking care of my baby) Δ (Day 7 vs Day 0): 1
BIMF item 11 (take a little time each week to do something for myself) Δ (Day 7 vs Day 0): 1
BPRS Anxiety improvement (Discharge): 6
BPRS Anxiety score (Discharge): 1
BPRS Blunted affect improvement (Discharge): 0
BPRS Conceptual disorganization improvement (Discharge): 0
BPRS Depressive Mood improvement (Discharge): 5
BPRS Depressive Mood score (Discharge): 1
BPRS Disorientation improvement (Discharge): 0
BPRS Emotional withdrawal improvement (Discharge): 4
BPRS Emotional withdrawal score (Discharge): 1
BPRS Excitement improvement (Discharge): 1
BPRS Excitement score (Discharge): 1
BPRS Grandiosity improvement (Discharge): 0
BPRS Guilt feelings improvement (Discharge): 5
BPRS Guilt feelings score (Discharge): 1
BPRS Hallucinatory behaviour improvement (Discharge): 0
BPRS Hostility improvement (Discharge): 0
BPRS Mannerisms and Posturing improvement (Discharge): 0
BPRS Motor retardation improvement (Discharge): 0
BPRS Somatic Concern improvement (Discharge): 5
BPRS Somatic Concern score (Discharge): 1
BPRS Suspiciousness improvement (Discharge): 0
BPRS Tension score (Discharge): 1
BPRS Uncooperativeness improvement (Discharge): 0
BPRS Unusual Thought Content improvement (Discharge): 0
BPRS Anxiety score (baseline): 7
BPRS Blunted affect score (baseline): 1
BPRS Conceptual disorganization score (baseline): 1
BPRS Depressive Mood score (baseline): 6
BPRS Disorientation score (baseline): 1
BPRS Emotional withdrawal score (baseline): 5
BPRS Excitement score (baseline): 2
BPRS Grandiosity score (baseline): 1
BPRS Guilt feelings score (baseline): 6
BPRS Hallucinatory behaviour score (baseline): 1
BPRS Hostility score (baseline): 1
BPRS Mannerisms and Posturing score (baseline): 1
BPRS Motor retardation score (baseline): 1
BPRS Somatic Concern score (baseline): 6
BPRS Suspiciousness score (baseline): 1
BPRS Tension score (baseline): 6
BPRS Uncooperativeness score (baseline): 1
BPRS Unusual Thought Content score (baseline): 1
MADRS Apparent sadness score (baseline): 5
MADRS Inability to Feel score (baseline): 3
MADRS Inner Tension score (baseline): 5
MADRS Lassitude score (baseline): 3
MADRS Pessimistic Thoughts score (baseline): 4
MADRS Reported sadness score (baseline): 4
Total MADRS score (baseline): 29
changes in vital parameters (shortly after administration): temporary, clinically non-relevant increase in heart rate and blood pressure
